# Assays:
# [1] = Relative hepatic PFAS levels; type: in vivo, mouse; details: liver; for Relative Hepatic PFAS Levels: Fold Change PFAS Female vs. PFAS Male / Relative Hepatic PFAS Levels: Fold Change PFAS vs. Vehicle: 12 weeks of the 5-PFAS mixture, 2 mg/L each in drinking water; for Hepatic level, fold increase in PFAS-exposed females compared to vehicle / Hepatic level, fold increase in PFAS-exposed males compared to vehicle: 12 weeks
# [2] = Relative plasma PFAS levels; type: in vivo, mouse; details: for Relative Plasma PFAS Levels: Fold Change PFAS Female vs. PFAS Male / Relative Plasma PFAS Levels: Fold Change PFAS vs. Vehicle: 12 weeks of the 5-PFAS mixture, 2 mg/L each in drinking water; for Plasma level, fold increase in PFAS-exposed females compared to vehicle / Plasma level, fold increase in PFAS-exposed males compared to vehicle: 12 weeks
# [3] = Absolute quantitation of circulating PFAS; type: in vivo, mouse; details: for Absolute Plasma PFAS Levels: Fold Change PFAS Female vs. PFAS Male / Absolute Plasma PFAS Levels: PFAS Female Average Concentration / Absolute Plasma PFAS Levels: PFAS male Average Concentration / Absolute Plasma PFAS Levels: Overall Average Concentration: 12 weeks; for concentration at 12 weeks: C57BL/6J, mouse, plasma, oral; for Absolute Plasma PFAS Levels: PFAS Female Average Concentration: exposed females; for Absolute Plasma PFAS Levels: PFAS Female Average Concentration / Absolute Plasma PFAS Levels: PFAS male Average Concentration: 2 mg/L each in drinking water, n=3; for Absolute Plasma PFAS Levels: PFAS male Average Concentration: exposed males; for Absolute Plasma PFAS Levels: Overall Average Concentration: exposed mice of both sexes
# [4] = ref Olsen et al. 2007; cited from earlier work
# human PPARα = details: ref Behr et al. 2020b, cited from earlier work; for In vitro activation of human PPARα: reporter gene assays; for PPARα activation compared to the positive control GW7647: even at concentrations 250 times greater than GW7647
# [5] = cited from earlier work; for Median serum concentration: general U.S. population, NHANES 2003-2004, ref Nelson et al. 2010
# humans = details: cited from earlier work
SMILES,Relative Hepatic PFAS Levels: Fold Change PFAS Female vs. PFAS Male [1] [fold],Relative Hepatic PFAS Levels: Fold Change PFAS vs. Vehicle [1] [fold],"Hepatic level, fold increase in PFAS-exposed females compared to vehicle [1] [fold]","Hepatic level, fold increase in PFAS-exposed males compared to vehicle [1] [fold]",Relative Plasma PFAS Levels: Fold Change PFAS Female vs. PFAS Male [2] [fold],"Plasma level, fold increase in PFAS-exposed females compared to vehicle [2] [fold]","Plasma level, fold increase in PFAS-exposed males compared to vehicle [2] [fold]",Absolute Plasma PFAS Levels: Fold Change PFAS Female vs. PFAS Male [3] [fold],concentration at 12 weeks ([3]; both) [ng/mL],Biological half-life in human serum [4],In vitro activation of human PPARα (human PPARα),Relative Plasma PFAS Levels: Fold Change PFAS vs. Vehicle [2] [fold],Absolute Plasma PFAS Levels: PFAS Female Average Concentration [3] [µg/mL],Absolute Plasma PFAS Levels: PFAS male Average Concentration [3] [µg/mL],Median serum concentration [5] [ng/mL],PPARα activation compared to the positive control GW7647 (human PPARα),Absolute Plasma PFAS Levels: Overall Average Concentration [3] [µg/mL],also measured
O=S(=O)(O)C(F)(F)C(F)(F)C(F)(F)C(F)(F)C(F)(F)C(F)(F)F [PFHxS],1.30,705.46,2035.7,387.1,0.96,6491,5414.2,0.9,23800,~8.5 years,capable of PPARα activation,,,,,,,
"O=C(O)C(F)(F)C(F)(F)C(F)(F)C(F)(F)C(F)(F)C(F)(F)C(F)(F)F [PFOA, perfluorooctanoic acid]",2.43,1513.94,4693.4,571.9,1.96,10883.6,6936.8,3.2,15400,around 4 years,capable of PPARα activation,10270.75,23.4 ± 9.0,7.3 ± 1.8,3.9,60-90%,,"Average serum concentration ([5]; populations occupationally exposed to PFOA, ref Sakr et al. 2007): 1.13 µg/mL; Predicted increase in total cholesterol from lowest to highest decile of PFOA (humans; exposed communities, ref Steenland et al. 2009): 11 to 12 mg/dL; Increase in total cholesterol associated with 1 ppm increase in serum PFOA (humans; occupationally exposed populations, ref Sakr et al. 2007): 1.06 mg/dL"
"O=S(=O)(O)C(F)(F)C(F)(F)C(F)(F)C(F)(F)C(F)(F)C(F)(F)C(F)(F)C(F)(F)F [PFOS, Perfluorooctane sulfonate]",0.92,188.03,386.3,127.2,0.77,545.2,708.9,0.6,,~5 years,capable of PPARα activation,627.07,13.8 ± 2.3,22.5 ± 4.1,21,,18.1 ± 5.6,
"O=C(O)C(F)(F)C(F)(F)C(F)(F)C(F)(F)C(F)(F)C(F)(F)C(F)(F)C(F)(F)F [PFNA, perfluorononanoic acid]",,,,,,,,0.8,,,,,33.7 ± 7.6,40.9 ± 10.6,,,37.3 ± 9.1,
N.O=C(O)C(F)(OC(F)(F)C(F)(F)C(F)(F)F)C(F)(F)F (stereo not shown) [GenX],,,,,,,,1.8,140,,capable of PPARα activation,,,,,60-90%,,"concentration at 12 weeks [3]: ~100 ng/g; Serum level in a population exposed to PFAS-contaminated water ([5]; not detected above limit of detection, ref Kotlarz et al. 2020): < 2 ng/mL"

# Reference: article PMC8490327 (Environment international, 2021)
